Reference: publication PMC11992225, “Antibacterial compounds against non-growing and intracellular bacteria” (npj Antimicrobials and Resistance, 2025)

Tests used:
[1] = system: non-growing P. aeruginosa DSM1117; assay: Dilution-regrowth assay (OD600, start-growth-time) on stationary-phase P. aeruginosa;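 as to Regrowth, OD600 at 6h or 8h after dilution into drug-free medium (average): OD600 read 8 h after dilution for P. aeruginosa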; format: cell-based, Pseudomonas aeruginosa; details: P. aeruginosa
Method: To determine the spectrum of activity of the compounds that were effective against non-growing UPEC, we further assessed their efficacy against the well-characterized Gram-negative and Gram-positive reference strains P. aeruginosa DSM1117 and S. aureus DSM2569, respectively. The cultures were grown and treated for 24 h in 1:4 CA-MHB (pH 7.4). […].
For better characterization of the compounds causing the strongest regrowth delay, we performed the regrowth step of the dilution-regrowth experiments on a plate reader, measuring the OD600 at 20-min intervals for over 20 h instead of using an endpoint measurement. This approach allowed us to capture the time when cultures reached a threshold optical density (start-growth-time, SGT[15]).
Overnight cultures of UPEC, P. aeruginosa and S. aureus were grown in test tubes containing 3 ml of LB broth (~16 h), then diluted 1:100 into either 1:4 diluted CA-MHB medium buffered with 40 mM HEPES (pH 7.4) or, in case of UPEC, into LPM medium[25] supplemented with 49 µM MgCl2 and buffered with 30 mM MES (pH 5.5). The cultures were incubated for 24 h in non-baffled Erlenmeyer flasks at 37 °C with shaking at 200 rpm.
For P. aeruginosa and S. aureus, dose–response analysis was conducted in 96-well plates with a 200 μl assay volume, following the procedure used for screening assay validation experiments. Aliquots of the 39 compounds active against non-growing UPEC were obtained from SelleckChem and MedChem Express. Stock solutions were prepared and stored according to the manufacturers’ instructions, then diluted in 10% DMSO before use. Cultures were incubated for 24 h in 1:4 diluted CA-MHB medium under the same conditions used for UPEC cultivation. In preliminary experiments, each compound was tested at a concentration of 20 μM in the dilution-regrowth assay with 4 technical replicates. Regrowth was monitored using a microplate reader at 37 °C with continuous shaking, and OD600 was recorded every 20 min. The time at which OD600 exceeded the threshold of 0.12 was recorded as the Start_Growth-Time.
The statistical analysis of all data, as well as EC50 and IC50 determination, was conducted using GraphPad Prism 10.2.3. Statistical significance of the drug effects was assessed using a one-way ANOVA followed by Dunnett’s test, comparing each treatment to the drug-free control. Statistical significance of the differences in chemical characteristics between the hit compounds and the Prestwick library was assessed using a Mann–Whitney test. Statistical significance was set at P ≤ 0.05. A five-parameter logistic equation was used for asymmetric sigmoidal curve fitting and for EC50 and IC50 determination. The Venn diagram in Fig. 1F was prepared using BioVenn web application. Characteristics of the chemical and physical properties of Prestwick library compounds were obtained from Supplementary Table S1 from reference. Characteristics of the hit compounds not included in the Prestwick library were retrieved from the PubChem database.

non-growing UPEC CFT073 = assay: Dose-dependent killing analysis (CFU spot-plating) of stationary-phase UPEC; format: cell-based, Escherichia coli; details: E. coli in LPM (pH 5.5)
Outline: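 Killing assessed by CFU counts: overnight 37 °C LB agar spot plates (10 μl drops of 10-fold PBS dilutions) scored at the lowest dilution with distinct colonies. Samples were compound-treated non-growing UPEC CFT073, 200 μl per well. Performed as three biological replicates.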

SMILES: CC(=O)[O][Pt]([NH2])([Cl])([Cl])([NH]C1CCCCC1)[O]C(C)=O [Satraplatin]
- Regrowth, OD600 at 6h or 8h after dilution into drug-free medium (average) ([1]; drug concentration 0.1): 0.622
- Regrowth, OD600 at 6h or 8h after dilution into drug-free medium (average) ([1]; drug concentration 0.5): 0.518
- Regrowth, OD600 at 6h or 8h after dilution into drug-free medium (average) ([1]; drug concentration 2.5): 0.207
- Regrowth, OD600 at 6h or 8h after dilution into drug-free medium (average) ([1]; drug concentration 10): 0.094
- EC50 ([1]; regrowth delay of non-growing bacteria, 1:4 CA-MHB pH 7.4, 24 h treatment, OD600 8 h after dilution, read-out: EC50): 1200 nM
- killing, average Δlog10(CFU/ml) (non-growing UPEC CFT073; drug concentration 0.25): 0.465 log10(CFU/ml)
- log10(CFU/ml) after treatment, replicate 1 (non-growing UPEC CFT073; drug concentration 0.25): 6.778 log10(CFU/ml)
- log10(CFU/ml) after treatment, replicate 2 (non-growing UPEC CFT073; drug concentration 0.25): 6.431 log10(CFU/ml)
- log10(CFU/ml) after treatment, replicate 3 (non-growing UPEC CFT073; drug concentration 0.25): 7.447 log10(CFU/ml)
- killing, average Δlog10(CFU/ml) (non-growing UPEC CFT073; drug concentration 0.5): 0.567 log10(CFU/ml)
- log10(CFU/ml) after treatment, replicate 1 (non-growing UPEC CFT073; drug concentration 0.5): 7.041 log10(CFU/ml)
- log10(CFU/ml) after treatment, replicate 2 (non-growing UPEC CFT073; drug concentration 0.5): 6.079 log10(CFU/ml)
- log10(CFU/ml) after treatment, replicate 3 (non-growing UPEC CFT073; drug concentration 0.5): 7.230 log10(CFU/ml)
- killing, average Δlog10(CFU/ml) (non-growing UPEC CFT073; drug concentration 1): 0.828 log10(CFU/ml)
- log10(CFU/ml) after treatment, replicate 1 (non-growing UPEC CFT073; drug concentration 1): 6.778 log10(CFU/ml)
- log10(CFU/ml) after treatment, replicate 2 (non-growing UPEC CFT073; drug concentration 1): 6.176 log10(CFU/ml)
- log10(CFU/ml) after treatment, replicate 3 (non-growing UPEC CFT073; drug concentration 1): 6.613 log10(CFU/ml)
- killing, average Δlog10(CFU/ml) (non-growing UPEC CFT073; drug concentration 2.5): 1.360 log10(CFU/ml)
- log10(CFU/ml) after treatment, replicate 1 (non-growing UPEC CFT073; drug concentration 2.5): 6.954 log10(CFU/ml)
- log10(CFU/ml) after treatment, replicate 2 (non-growing UPEC CFT073; drug concentration 2.5): 5.903 log10(CFU/ml)
- log10(CFU/ml) after treatment, replicate 3 (non-growing UPEC CFT073; drug concentration 2.5): 5.114 log10(CFU/ml)
- killing, average Δlog10(CFU/ml) (non-growing UPEC CFT073; drug concentration 5): 1.695 log10(CFU/ml)
- log10(CFU/ml) after treatment, replicate 1 (non-growing UPEC CFT073; drug concentration 5): 6.146 log10(CFU/ml)
- log10(CFU/ml) after treatment, replicate 2 (non-growing UPEC CFT073; drug concentration 5): 5.778 log10(CFU/ml)
- log10(CFU/ml) after treatment, replicate 3 (non-growing UPEC CFT073; drug concentration 5): 5.041 log10(CFU/ml)
- killing, average Δlog10(CFU/ml) (non-growing UPEC CFT073; drug concentration 10): 2.758 log10(CFU/ml)
- log10(CFU/ml) after treatment, replicate 1 (non-growing UPEC CFT073; drug concentration 10): 5.778 log10(CFU/ml)
- log10(CFU/ml) after treatment, replicate 2 (non-growing UPEC CFT073; drug concentration 10): =<4 log10(CFU/ml)
- log10(CFU/ml) after treatment, replicate 3 (non-growing UPEC CFT073; drug concentration 10): =<4 log10(CFU/ml)
